Experiments:
[1] = Antiplatelet activity in human platelet rich plasma assessed as inhibition of ADP-induced platelet aggregation by Born's method; assay type: functional
[2] = target: Integrin alpha-IIb/beta-3 (Homo sapiens, UniProt P05106+P08514); assay: Inhibition of FITC-labelled fibrinogen binding to integrin alpha2b beta3 receptor in human platelet cells; assay type: cell-based
Sequence of Integrin alpha-IIb/beta-3 (P05106 27-788 limits assumed): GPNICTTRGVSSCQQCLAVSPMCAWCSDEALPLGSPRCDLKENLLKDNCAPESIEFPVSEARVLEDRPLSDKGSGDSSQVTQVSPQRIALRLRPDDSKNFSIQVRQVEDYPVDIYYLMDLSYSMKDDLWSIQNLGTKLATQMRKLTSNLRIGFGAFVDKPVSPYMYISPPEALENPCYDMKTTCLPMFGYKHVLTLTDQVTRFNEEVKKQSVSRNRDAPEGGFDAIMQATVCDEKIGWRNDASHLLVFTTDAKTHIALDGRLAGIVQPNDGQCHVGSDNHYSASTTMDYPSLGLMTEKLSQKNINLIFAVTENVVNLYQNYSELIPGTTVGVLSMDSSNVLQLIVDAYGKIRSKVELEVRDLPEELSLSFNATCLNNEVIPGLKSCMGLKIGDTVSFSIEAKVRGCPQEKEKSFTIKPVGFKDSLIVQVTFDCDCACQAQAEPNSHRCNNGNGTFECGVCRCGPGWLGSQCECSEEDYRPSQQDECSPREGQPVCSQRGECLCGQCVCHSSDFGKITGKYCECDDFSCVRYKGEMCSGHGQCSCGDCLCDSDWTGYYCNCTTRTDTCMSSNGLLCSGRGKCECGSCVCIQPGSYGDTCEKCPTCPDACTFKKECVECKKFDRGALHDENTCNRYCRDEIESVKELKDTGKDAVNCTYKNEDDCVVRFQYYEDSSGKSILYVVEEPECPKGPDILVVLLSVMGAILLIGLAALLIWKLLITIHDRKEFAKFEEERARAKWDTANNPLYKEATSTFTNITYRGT
Sequence of Integrin alpha-IIb/beta-3 (P08514 32-887 limits assumed): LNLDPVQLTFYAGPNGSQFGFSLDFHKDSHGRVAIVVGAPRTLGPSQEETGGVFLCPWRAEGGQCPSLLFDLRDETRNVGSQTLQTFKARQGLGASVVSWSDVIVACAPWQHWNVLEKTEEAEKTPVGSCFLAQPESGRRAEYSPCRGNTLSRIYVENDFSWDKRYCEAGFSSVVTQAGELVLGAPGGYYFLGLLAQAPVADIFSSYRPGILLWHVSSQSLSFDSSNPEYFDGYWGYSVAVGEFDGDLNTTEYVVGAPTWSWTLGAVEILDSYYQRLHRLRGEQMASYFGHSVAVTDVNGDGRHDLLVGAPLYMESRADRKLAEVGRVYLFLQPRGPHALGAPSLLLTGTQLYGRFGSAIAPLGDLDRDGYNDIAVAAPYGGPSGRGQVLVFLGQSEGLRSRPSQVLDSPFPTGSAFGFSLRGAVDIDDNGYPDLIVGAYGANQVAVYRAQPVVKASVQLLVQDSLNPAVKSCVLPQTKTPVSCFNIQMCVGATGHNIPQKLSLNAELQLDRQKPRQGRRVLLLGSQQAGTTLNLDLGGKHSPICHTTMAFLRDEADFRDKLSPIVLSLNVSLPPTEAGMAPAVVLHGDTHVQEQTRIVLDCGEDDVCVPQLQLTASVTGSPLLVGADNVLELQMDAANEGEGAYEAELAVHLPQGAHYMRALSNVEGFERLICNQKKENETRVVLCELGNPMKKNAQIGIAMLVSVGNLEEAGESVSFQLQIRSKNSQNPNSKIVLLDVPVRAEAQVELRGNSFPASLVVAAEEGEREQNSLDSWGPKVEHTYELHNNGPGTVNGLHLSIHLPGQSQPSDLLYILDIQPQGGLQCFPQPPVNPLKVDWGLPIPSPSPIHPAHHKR
Sequence of Integrin alpha-IIb/beta-3 (P08514 891-1039 limits assumed): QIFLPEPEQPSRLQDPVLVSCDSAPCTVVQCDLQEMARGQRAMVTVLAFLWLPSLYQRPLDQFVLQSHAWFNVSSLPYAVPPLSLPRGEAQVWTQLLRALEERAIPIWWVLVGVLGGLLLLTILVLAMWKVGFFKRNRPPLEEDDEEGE

For CCC(=O)Nc1ccc2nc(N3CCNCC3)nc(-c3ccccc3)c2c1, the IC50 [1] was 720 nM.

CC(C)COC(=O)N[C@@H](CN)C(=O)Nc1ccc2nc(N3CCNCC3)[nH]c(=O)c2c1 showed an IC50 [1] of 40 nM and an IC50 [2] of 1.8 nM.

Work on CCC(=O)Nc1ccc2nc(N3CCNCC3)[nH]c(=O)c2c1 yielded an IC50 [1] of 170 nM and an IC50 [2] of 55 nM.

Compound NC[C@H](NC(=O)OCc1ccccc1)C(=O)Nc1ccc2nc(N3CCNCC3)[nH]c(=O)c2c1 has an IC50 [1] of 19 nM and an IC50 [2] of 1.53 nM.

CCOC(=O)N[C@@H](CN)C(=O)Nc1ccc2nc(N3CCNCC3)[nH]c(=O)c2c1 gave an IC50 [1] of 60 nM.

In the case of NCCCCC(=O)Nc1ccc2nc(N3CCNCC3)nc(-c3ccccc3)c2c1, the IC50 [1] is reported as 48000 nM.

Compound NCCCCC(=O)Nc1ccc2nc(N3CCNCC3)[nH]c(=O)c2c1 has an IC50 [1] of 1400 nM.

NCc1ccc(C(=O)Nc2ccc3nc(N4CCNCC4)[nH]c(=O)c3c2)cc1 showed an IC50 [1] of 1900 nM.

In the case of NCCCC(=O)Nc1ccc2nc(N3CCNCC3)nc(-c3ccccc3)c2c1, the IC50 [1] is reported as 49 nM.

For NCCCCCC(=O)Nc1ccc2nc(N3CCNCC3)nc(-c3ccccc3)c2c1, the IC50 [1] was 58000 nM.

In the case of NCC[C@H](NC(=O)OCc1ccccc1)C(=O)Nc1ccc2nc(N3CCNCC3)[nH]c(=O)c2c1, the IC50 [1] is reported as 10 nM and the IC50 [2] is reported as 1.57 nM.

CCCCS(=O)(=O)N[C@@H](Cc1ccc(OCCCCC2CCNCC2)cc1)C(=O)O [TIROFIBAN] showed an IC50 [1] of 30 nM.

O=C(Nc1ccc2nc(N3CCNCC3)[nH]c(=O)c2c1)c1ccc(N2CCNCC2)cc1 showed an IC50 [1] of 1300 nM and an IC50 [2] of 20 nM.

Compound O=C(Nc1ccc2nc(N3CCNCC3)[nH]c(=O)c2c1)c1ccc(C2CCNCC2)cc1 has an IC50 [1] of 570 nM.

For NCCCCCC(=O)Nc1ccc2nc(N3CCNCC3)[nH]c(=O)c2c1, the IC50 [1] was 1300 nM.

With NCCC(=O)Nc1ccc2nc(N3CCNCC3)nc(-c3ccccc3)c2c1 the IC50 [1] was 570 nM.

From ChEMBL document CHEMBL3785050, “Synthesis, biological evaluation and molecular docking studies of 2-piperazin-1-yl-quinazolines as platelet aggregation inhibitors and ligands of integrin αIIbβ3” (Bioorg Med Chem Lett, 2016)
